According to US20210386367A1, “DEVICES AND SYSTEMS FOR GASTROINTESTINAL MICROBIOME DETECTION AND MANIPULATION” (Progenity, Inc., priority 2018, published 2021):
Values after ≈ are worked out from the molar mass of the structure shown. Like-named read-outs stand apart in the source and are kept apart here.

Tests used:
[1] = tested on: Bacteroides spp. spontaneous mutants; experiment: Broth microdilution MIC of spontaneous mutants; assay type: cell-based; settings: read-out: MIC
Method in brief: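 Isolates from drug selection plates were subcultured on agar containing drug at the selection concentration and identified by MALDI, then MIC was determined by CLSI broth microdilution (M100-S28) with serial two-fold dilutions. Plates were pre-reduced 1 h in an anaerobic chamber; final inoculum ~1×10^6 CFU/mL.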

[2] = tested on: Streptococcus spp. spontaneous mutants; experiment: organism not typed; assay type: cell-based
Method in brief: (§1)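 Spontaneous mutants from drug selection plates were tested by CLSI broth microdilution in MHB II with two-fold serial drug dilutions. Inoculum was about 5×10^5 CFU/mL, incubated aerobically at 35° C. for 18-20 hr. MIC was the lowest concentration inhibiting visible growth.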

[3] = tested on: Streptococcus spp. (S. pneumoniae ATCC 49619, S. pyogenes ATCC 49399, S. agalactiae ATCC 13813); experiment: Agar dilution MIC (spontaneous mutation study; strain in conditions); assay type: cell-based
[4] = tested on: E. coli, Streptococcus spp., and Bacteroides spp. isolates; assay type: cell-based
Protocol: Initial values of the MIC were determined by agar dilution in accordance with guidelines from the Clinical and Laboratory Standards Institute (CLSI; (1) “Methods for Dilution Antimicrobial Susceptibility Tests for Bacteria That Grow Aerobically; Approved Standard; 11th ed.,” CLSI standard M07, 2018; (2) “Methods for Antimicrobial Susceptibility Testing of Anaerobic Bacteria; Approved Standard—Eighth Edition,” CLSI document M11-A8, 2012.).
If there were no colonies on the antibiotic selection plates, the spontaneous mutation frequency was reported as less than the frequency observed with one colony to indicate that the spontaneous mutation frequency was less than the limit of detection (one CFU). […] The mutation prevention concentration (MPC) was reported as the lowest concentration for which no mutants were selected.

[5] = tested on: E. coli spontaneous mutants; experiment: Broth microdilution MIC of spontaneous mutants; assay type: cell-based, Escherichia coli; settings: for MIC: Escherichia coli
Method in brief: as §1

S. pneumoniae ATCC 49619 = settings: cited from earlier work
E. coli MMX 1312 = experiment: Time-kill assay; assay type: cell-based, Escherichia coli
S. agalactiae ATCC 13813 = experiment: Broth microdilution MIC (time-kill study); assay type: cell-based, Streptococcus agalactiae

## C[C@@H](O)[C@H]1C(=O)N2C(C(=O)O)=C(S[C@@H]3CN[C@H](C(=O)N(C)C)C3)[C@H](C)[C@H]12 [meropenem]
[1]; B. fragilis ATCC 25285, selected on rifaximin 4X MIC, Colony A
  MIC: 0.03 µg/mL
[1]; B. fragilis ATCC 25285, selected on rifaximin 4X MIC, Colony B
  MIC: 0.06 µg/mL
[1]; B. fragilis ATCC 25285, selected on rifaximin 8X MIC, Colony A
  MIC: 0.06 µg/mL
[1]; B. fragilis ATCC 25285, selected on rifaximin 8X MIC, Colony B
  MIC: 0.06 µg/mL
[1]; B. fragilis ATCC 25285 Parent
  MIC: 0.06 µg/mL
[1]; B. ovatus MMX 3503, selected on rifaximin 4X MIC, Colony A
  MIC: 0.12 µg/mL
[1]; B. ovatus MMX 3503, selected on rifaximin 4X MIC, Colony B
  MIC: 0.12 µg/mL
[1]; B. ovatus MMX 3503, selected on rifaximin 8X MIC, Colony A
  MIC: 0.12 µg/mL
[1]; B. ovatus MMX 3503, selected on rifaximin 8X MIC, Colony B
  MIC: 0.12 µg/mL
[1]; B. ovatus MMX 3503 Parent
  MIC: 0.12 µg/mL
[1]; B. vulgatus ATCC 8482, selected on ceftriaxone 4X MIC, Colony A
  MIC: 0.25 µg/mL
[1]; B. vulgatus ATCC 8482, selected on ceftriaxone 4X MIC, Colony B
  MIC: 0.25 µg/mL
[1]; B. vulgatus ATCC 8482, selected on rifaximin 4X MIC, Colony A
  MIC: 0.12 µg/mL
[1]; B. vulgatus ATCC 8482, selected on rifaximin 4X MIC, Colony B
  MIC: 0.12 µg/mL
[1]; B. vulgatus ATCC 8482, selected on rifaximin 8X MIC, Colony A
  MIC: 0.25 µg/mL
[1]; B. vulgatus ATCC 8482, selected on rifaximin 8X MIC, Colony B
  MIC: 0.12 µg/mL
[1]; B. vulgatus ATCC 8482 Parent (Table 50)
  MIC: 0.12 µg/mL
[1]; B. vulgatus ATCC 8482 Parent (Table 54)
  MIC: 0.12 µg/mL
[2]; S. pneumoniae ATCC 49619, selected on rifaximin 4X MIC, Colony A
  MIC: 0.03 µg/mL (≈ 0.0782 µM)
[2]; S. pneumoniae ATCC 49619, selected on rifaximin 4X MIC, Colony B
  MIC: 0.03 µg/mL (≈ 0.0782 µM)
[2]; S. pneumoniae ATCC 49619, selected on rifaximin 8X MIC, Colony A
  MIC: 0.03 µg/mL (≈ 0.0782 µM)
[2]; S. pneumoniae ATCC 49619, selected on rifaximin 8X MIC, Colony B
  MIC: 0.03 µg/mL (≈ 0.0782 µM)
[2]; S. pneumoniae ATCC 49619 Parent
  MIC: 0.03 µg/mL (≈ 0.0782 µM)
[2]; S. pyogenes ATCC 49399, selected on rifaximin 4X MIC, Colony A
  MIC: 0.002 µg/mL (≈ 0.00522 µM)
[2]; S. pyogenes ATCC 49399, selected on rifaximin 4X MIC, Colony B
  MIC: 0.004 µg/mL (≈ 0.0104 µM)
[2]; S. pyogenes ATCC 49399, selected on rifaximin 8X MIC, Colony A
  MIC: 0.004 µg/mL (≈ 0.0104 µM)
[2]; S. pyogenes ATCC 49399, selected on rifaximin 8X MIC, Colony B
  MIC: 0.004 µg/mL (≈ 0.0104 µM)
[2]; S. pyogenes ATCC 49399 Parent
  MIC: 0.004 µg/mL (≈ 0.0104 µM)
[2]; Streptococcus, ATCC13813, S. agaloctiae ATCC 13813, selected on rifaximin 4X MIC, Colony A
  MIC: 0.015 µg/mL (≈ 0.0391 µM)
[2]; Streptococcus, ATCC13813, S. agaloctiae ATCC 13813, selected on rifaximin 4X MIC, Colony B
  MIC: 0.015 µg/mL (≈ 0.0391 µM)
[2]; Streptococcus, ATCC13813, S. agaloctiae ATCC 13813, selected on rifaximin 8X MIC, Colony A
  MIC: 0.015 µg/mL (≈ 0.0391 µM)
[2]; Streptococcus, ATCC13813, S. agaloctiae ATCC 13813, selected on rifaximin 8X MIC, Colony B
  MIC: 0.03 µg/mL (≈ 0.0782 µM)
[2]; Streptococcus, ATCC13813, S. agaloctiae ATCC 13813 Parent
  MIC: 0.008 µg/mL (≈ 0.0209 µM)
[3]; Streptococcus agalactiae, S. agalactiae ATCC 13813, read-out: Agar MIC
  MIC: 0.03 µg/mL (≈ 0.0782 µM)
[3]; Streptococcus pneumoniae, S. pneumoniae ATCC 49619, read-out: Agar MIC
  MIC: 0.06 µg/mL (≈ 0.156 µM)
[3]; Streptococcus pyogenes, S. pyogenes ATCC 49399, read-out: Agar MIC
  MIC: 0.008 µg/mL (≈ 0.0209 µM)
[3]; over evaluated Streptococcus spp. (range stated jointly with other groups), read-out: MIC values (agar dilution)
  MIC: 0.008 to 0.12 µg/mL (≈ 0.0209 to 0.313 µM)
[4]; SIBO pathogens in vitro
  propensity for spontaneous resistance: little propensity for resistance to develop spontaneously
[4]; across the evaluated isolates
  MPC values: equivalent to 4× the MIC
[5]; ATCC25922, E. coli ATCC 25922, selected on rifaximin 4X MIC, Colony A
  MIC: 0.008 µg/mL
[5]; ATCC25922, E. coli ATCC 25922, selected on rifaximin 4X MIC, Colony B
  MIC: 0.008 µg/mL
[5]; ATCC25922, E. coli ATCC 25922, selected on rifaximin 8X MIC, Colony A
  MIC: 0.008 µg/mL
[5]; ATCC25922, E. coli ATCC 25922 Parent (Table 52)
  MIC: 0.03 µg/mL
[5]; ATCC35218, E. coli ATCC 35218, selected on rifaximin 4X MIC, Colony A
  MIC: 0.015 µg/mL
[5]; ATCC35218, E. coli ATCC 35218, selected on rifaximin 4X MIC, Colony B
  MIC: 0.015 µg/mL
[5]; ATCC35218, E. coli ATCC 35218, selected on rifaximin 8X MIC, Colony A
  MIC: 0.015 µg/mL
[5]; ATCC35218, E. coli ATCC 35218, selected on rifaximin 8X MIC, Colony B
  MIC: 0.015 µg/mL
[5]; ATCC35218, E. coli ATCC 35218 Parent (Table 52)
  MIC: 0.015 µg/mL
[5]; E. coli MMX 1312, selected on ceftriaxone 4X MIC, Colony A
  MIC: 0.015 µg/mL
[5]; E. coli MMX 1312, selected on ceftriaxone 4X MIC, Colony B
  MIC: 0.015 µg/mL
[5]; E. coli MMX 1312, selected on ceftriaxone 4X MIC, Colony C
  MIC: 0.03 µg/mL
[5]; E. coli MMX 1312, selected on ceftriaxone 8X MIC, Colony A
  MIC: 0.015 µg/mL
[5]; E. coli MMX 1312, selected on ceftriaxone 8X MIC, Colony B
  MIC: 0.03 µg/mL
[5]; E. coli MMX 1312, selected on ceftriaxone 8X MIC, Colony C
  MIC: 0.03 µg/mL
[5]; E. coli MMX 1312, selected on rifaximin 4X MIC, Colony A
  MIC: 0.008 µg/mL
[5]; E. coli MMX 1312, selected on rifaximin 4X MIC, Colony B
  MIC: 0.008 µg/mL
[5]; E. coli MMX 1312, selected on rifaximin 8X MIC, Colony A
  MIC: 0.015 µg/mL
[5]; E. coli MMX 1312, selected on rifaximin 8X MIC, Colony B
  MIC: 0.015 µg/mL
[5]; E. coli MMX 1312 Parent
  MIC: 0.015 µg/mL
[5]; E. coli MMX 1312 Parent (Table 49)
  MIC: 0.015 µg/mL
[5]; E. coli MMX 1312 Parent (Table 52)
  MIC: 0.015 µg/mL
[5]; E. coli MMX 1312 mutant selected on meropenem 4X MIC, colony A
  MIC: 0.015 µg/mL
[5]; E. coli MMX 1312 mutant selected on meropenem 4X MIC, colony B
  MIC: 0.015 µg/mL
[5]; E. coli MMX 1312 mutant selected on meropenem 4X MIC, colony C
  MIC: 0.015 µg/mL
[5]; E. coli MMX 1312 mutant selected on meropenem 8X MIC, colony A
  MIC: 0.015 µg/mL
[5]; E. coli MMX 1312 mutant selected on meropenem 8X MIC, colony B
  MIC: 0.015 µg/mL
[5]; E. coli MMX 1312 mutant selected on meropenem 8X MIC, colony C
  MIC: 0.015 µg/mL
[5]; colonies selected at 4× and 8× the MIC
  broth microdilution MIC of selected colonies relative to parent strain: consistent with that of the parent strain
S. pneumoniae ATCC 49619
  CLSI QC range (MIC): (0.03-0.25)^1 μg/mL
E. coli MMX 1312; 2×, 4×, 8× MIC, 2, 6, 24 hr
  time-kill kinetics outcome (bactericidal = ≥3 log reduction in CFU per mL): regrowth was observed at 24 hr for all concentrations
E. coli MMX 1312; 8×MIC, 6 hr timepoint
  CFU decrease: 3 log10 CFU
S. agalactiae ATCC 13813; S. agalacttae ATCC 13813 (so in the source)
  MIC: 8 ng/mL (≈ 0.0209 µM)
S. agalactiae ATCC 13813; Streptococcus agalactiae, ATCC13813, broth microdilution, read-out: MIC
  MIC: 8 ng/mL (≈ 0.0209 µM)
